Results reported in PubChem BioAssay AID1996.
In brackets after ≈: the same amount, converted by molar mass.

Settings: buffer; pH 7.4; 200.0 µM

| SMILES | solubility kinetic [µg/mL] |
| --- | --- |
| CNC(=S)NCCc1c[nH]c2ccc(OC)cc12 | > 39.5 |
| O=C(CN1C(=O)COc2ccccc21)Nc1ccccc1F | 21.4 (≈ 71.3 µM) |
| NC(=O)c1ccccc1OCCOc1ccc(Br)cc1 | 5.1 (≈ 15.2 µM) |
| Nc1cc(-c2ccncc2)c[nH]c1=O | > 28.1 |
| COc1ccc(C2=COc3ccccc3C(=O)N2)cc1 | 11.4 (≈ 42.7 µM) |
| Cc1nc(NC(=O)COC(=O)[C@@H](NC(=O)c2ccco2)C(C)C)c(Cl)cc1Cl | > 64.2 |
| O=C1N(Cc2ccccc2)c2ccc(Cl)cc2C12OCCO2 | 9 (≈ 28.5 µM) |
| O=C(NC1CCCCC1)c1ccc(-c2ccccc2)cc1 | < 0.6 |
| Cc1ccc(C)c(S(=O)(=O)NCc2ccc(C(=O)N3CCOCC3)cc2)c1 | > 58.3 |
| CCc1cc(S(N)(=O)=O)cc(CC)c1NC(C)=O | 38.4 (≈ 142 µM) |
| COc1cc(CNCCNC(=O)c2cccs2)cc(OC)c1OC | 44.1 (≈ 126 µM) |
| COc1ccc(N2CCN(C(=O)COC(=O)c3cccc(OC)c3O)CC2)cc1 | 7.2 (≈ 18 µM) |
| O=C(CSc1nc2ccccc2o1)NCC1CCCO1 (centres undefined) | > 43.9 |
| CC(=O)c1cn(C2OC(CO)C3OC(C)(C)OC32)c(=O)n(C)c1=O (centres undefined) | 48.9 (≈ 144 µM) |
| CCCN1C[C@H](CSC)C[C@@H]2c3cccc4[nH]cc(c34)C[C@H]21.CS(=O)(=O)O | 2.3 |
| COc1ccc2c(c1)CCCC21NC(=O)N(CC(=O)NCc2cccs2)C1=O (centres undefined) | > 59.9 |
| NC(=O)Nc1ccc(C(=O)OCC(=O)c2c[nH]c3ccccc23)cc1 | 4.2 (≈ 12.5 µM) |
| Cc1ccc(C(=O)CCC(=O)NCc2ccc(Cl)cc2)cc1 | 9.7 (≈ 30.7 µM) |
| CC(=O)N=c1sccn1CC(O)c1ccccc1 (centres undefined) | > 39.3 |
| OCC(O)CNC(=S)NC1CCCCC1 (centres undefined) | > 34.9 |
| CCOc1ccccc1NC(=O)Nc1ccc2c(c1)OCO2 | 2.8 (≈ 9.32 µM) |
| CCOC(=O)N1CCN(C(=O)c2ccc3[nH]c(C)c(C)c3c2)CC1 | > 49.4 |
| CCN(CC)c1cc(C)c(C#N)c2nc3ccccc3n12 | 2 (≈ 7.18 µM) |
| Clc1cccc(C2Nc3cccc4cccc(c34)N2)c1Cl | 0.5 (≈ 1.59 µM) |

| SMILES | solubility kinetic [µg/mL] |
| --- | --- |
| Cc1nnc(SCC(=O)NC2CCCCCC2)n1C(C)C | > 46.6 |
| CCCCOc1ccc(N2CC(C(=O)NCc3ccco3)CC2=O)cc1 (centres undefined) | 12.6 (≈ 35.4 µM) |
| CCn1cc(S(=O)(=O)Nc2ncccn2)cn1 | > 38 |
| N#Cc1ccc(NC(=O)Cn2cnc([N+](=O)[O-])c2)cc1 | 37.4 (≈ 138 µM) |
| O=C(/C=C/c1ccc([N+](=O)[O-])s1)N1CCCC1 | > 37.8 |
| COc1cc(/C=C2/C(=O)ON=C2C)cc(Cl)c1O | > 40.2 |
| COc1ccc(CN(C#N)c2nc(C)cc(C)n2)cc1 | 38.5 (≈ 143 µM) |
| CC(=O)c1ccccc1OCCCOc1cccc2cccnc12 | 45.8 (≈ 143 µM) |
| COc1ccccc1Nc1c2c(nc3ccc(N)cc13)CCCC2 | 47.2 (≈ 148 µM) |
| O=C1CC(C(=O)N2CCN(c3ccccc3)CC2)CN1Cc1ccccc1 (centres undefined) | > 54.5 |
| Cc1cc(SCC(=O)[O-])nc2ccccc12 | 31 |
| COC(/C(=N/O)c1ccc(Cl)cc1)c1ccccc1 (centres undefined) | 35.8 (≈ 130 µM) |
| S=C(NCc1ccco1)N/N=C/c1ccncc1 | > 39 |
| CN1C2CCC1CC(NC(=O)c1cccc(C(F)(F)F)c1)C2 (centres undefined) | > 46.9 |
| O=C(CN1C(=O)COc2ccccc21)NCC1CCCO1 (centres undefined) | > 43.5 |
| O=C(COC(=O)COc1ccccc1)NCc1ccc2c(c1)OCO2 | > 51.5 |
| CCC1(C)NC(=O)N(/N=C/c2ccc(C)s2)C1=O (centres undefined) | > 39.8 |
| COc1ccccc1CNC(=O)COC(=O)Cc1cccs1 | > 47.9 |
| Cc1ccc(/C=[N+](\[O-])c2ccccc2C)o1 | 22.2 (≈ 103 µM) |
| O=C(c1ccc(Br)cc1)C12CN3CN(CN(C3)C1)C2 | > 48.3 |
| Cc1ccc(C(=O)NCC(=O)N2CCCCCCC2)cc1C | > 45.4 |
| O=C(CCCCCl)Nc1c2c(nc3ccccc13)CCC2 | 31.6 (≈ 104 µM) |
| CC(C)(C)c1ccc(C(=O)NCc2ccco2)cc1 | 13.5 (≈ 52.5 µM) |
| Cc1ccc(OCC(=O)O/N=C(\N)c2ccccn2)cc1C | 38.1 (≈ 127 µM) |

| SMILES | solubility kinetic [µg/mL] |
| --- | --- |
| Cc1[nH]c(=O)[nH]c(=O)c1S(=O)(=O)Nc1ccc(F)cc1Cl | > 50.1 |
| c1ccc(Cn2c(NCc3ccncc3)nc3ccccc32)cc1 | > 47.2 |
| CC1(C)CC2=C(CO1)C(=S)NC(c1ccccc1)N2CC1CCCO1 (centres undefined) | 45.3 (≈ 126 µM) |
| COc1ccc(CNc2cc(C)nc3ccc(OC)cc23)cc1 | 37.8 (≈ 123 µM) |
| CC(C)(C)NC(=O)NC(=O)CN1CC=C(c2ccccc2)CC1 | 38.9 (≈ 123 µM) |
| Cc1nc2ccccc2c(=O)n1NC(=O)c1cccc(Cl)c1 | > 47.1 |
| O=C(COC(=O)COc1ccc(Cl)cc1)NCc1ccc2c(c1)OCO2 | 2.3 (≈ 6.09 µM) |
| CCCc1cc(=O)[nH]c(SCC(=O)NCCC2=CCCCC2)n1 | 48.2 (≈ 144 µM) |
| Cc1ccc2nc(C)c3c(c2c1)N(c1ccccc1)CC3 | > 41.2 |
| CC(C)c1ccc(N=Cc2c(O)n(C3CC3)c(=S)[nH]c2=O)cc1 | 0.5 (≈ 1.52 µM) |
| Cc1ccc(C(C)NC(=O)c2c(-c3ccccc3)noc2C)cc1C (centres undefined) | 2.4 (≈ 7.18 µM) |
| CC(=O)c1cccc(NC(=O)c2cc(-c3cccs3)on2)c1 | < 0.3 |
| CCOC(=O)C1CCN(S(=O)(=O)c2c[nH]c(=O)[nH]c2=O)CC1 | > 49.7 |
| O=C(NCC1CCCO1)c1ccc(NC(=O)c2cc(F)c(F)cc2Cl)cc1 (centres undefined) | 5.3 (≈ 13.4 µM) |
| COc1ccc2[nH]c3c(c2c1)CCNC3C.Cl (centres undefined) | 30.1 |
| CC(CNC(=O)c1ccc2c(c1)OCO2)c1ccc([N+](=O)[O-])cc1 (centres undefined) | 2 (≈ 6.09 µM) |
| CNC(=O)OCCSCCS(=O)(=O)c1ccc(Cl)cc1 | 16.6 (≈ 49.1 µM) |
| CC(C)CNC(=O)N1c2ccccc2Sc2ccccc21 | 7.1 (≈ 23.8 µM) |
| CCOC(=O)/C=C1\SCC(=O)N1CC(=O)Nc1cccc(F)c1 | 17.1 (≈ 50.5 µM) |
| Cc1ccc(Nc2ncnc(-n3cccc3)n2)cc1Cl | < 0.1 |
| COc1ccc(NC(=O)c2cc(-c3ccco3)on2)cc1 | 0.8 (≈ 2.81 µM) |
| CCOc1ccc(NC(=O)c2[nH]c(C)c(C(C)=O)c2C)cc1 | 3.4 (≈ 11.3 µM) |
| CC(=O)Nc1cccc(NC(=O)Cc2cccs2)c1 | 28.4 (≈ 104 µM) |
| COc1ccc(CN2CCNCC2)c(OC)c1OC.Cl | 40.3 |

| SMILES | solubility kinetic [µg/mL] |
| --- | --- |
| COc1ccc(Cl)cc1CN1CCOCC1.Cl | > 41.7 |
| O=C(Nc1cc([N+](=O)[O-])ccc1Cl)c1cccnc1 | 26.4 (≈ 95.1 µM) |
| Cc1nc(=O)c(-c2ccccc2)c(C)n1-c1ccccc1 | > 41.5 |
| COc1ccc(-c2cc(C(=O)Nc3ccccc3F)on2)cc1 | < 0.3 |
| CC1CN(C(=S)Nc2ccccc2F)CC(C)O1 (centres undefined) | > 40.3 |
| Cc1nc2ccc([N+](=O)[O-])cc2s1 | 19.4 (≈ 99.9 µM) |
| O=C(O)CCCNC(=O)Cc1ccccc1 | > 33.2 |
| Cc1ccc(N2C(=O)CC(Cc3ccc(Cl)cc3)C2=O)cc1 (centres undefined) | 7.1 (≈ 22.6 µM) |
| COCCNC(=O)C(=O)Nc1cc2c3c(c1)CCC(=O)N3CCC2 | 46.4 (≈ 140 µM) |
| Cc1cc([N+](=O)[O-])nn1CC(=O)NCc1ccccc1 | > 41.1 |
| CC(C)(C)c1ccccc1NC(=O)C1=COCCO1 | > 39.2 |
| COCCCn1c(SCC(=O)NC2CCCC2)nnc1-c1ccncc1 | > 56.3 |
| O=c1[nH]c(/C=C\c2cccc(F)c2)nc(O)c1[N+](=O)[O-] | > 41.6 |
| COc1cc2c(cc1OC)C(COc1ccc(C(C)C)cc1)NCC2 (centres undefined) | 35.1 (≈ 103 µM) |
| CC(=O)N(C)c1ccc(NC(=O)Nc2cccc3ccccc23)cc1 | 1.3 (≈ 3.9 µM) |
| Cc1noc(C)c1COc1cccc(C(=O)OC(C)C#N)c1 (centres undefined) | 43.2 (≈ 144 µM) |
| CSc1ncc(CN2CCN(C(C)C)C(CCO)C2)cn1 (centres undefined) | > 46.6 |
| NC(=O)c1cc[n+](Cc2ccc([N+](=O)[O-])cc2)cc1.[Br-] | > 50.7 |
| O=C(Nc1nccs1)c1ccc(Cl)c([N+](=O)[O-])c1 | 6.9 (≈ 24.3 µM) |
| COC(=O)c1cc(S(=O)(=O)N2CCCCC2)c[nH]1 | > 40.8 |
| COc1ccc(/C(N)=N/OC(=O)c2ccc(OC)c([N+](=O)[O-])c2)cc1OC | 0.6 (≈ 1.6 µM) |
| Cc1cccc(NC(=O)CCN2CCC(C)CC2)c1 | > 39.1 |
| CCN(CC)CCCNC(=O)Cn1ccc2ccccc2c1=O | > 47.3 |
| Cc1ccc(-n2c(=O)[nH]c3c(C(N)=O)nc(C(C)C)nc32)cc1 | 9.4 (≈ 30.2 µM) |

| SMILES | solubility kinetic [µg/mL] |
| --- | --- |
| COc1ccc(CCNC(=O)C2Cc3ccccc3C(=O)O2)cc1 (centres undefined) | > 48.8 |
| O=C(CCC(=O)NC1CCCCC1)Nc1cccnc1 | > 41.3 |
| Cc1cc(OCC(O)CN2CCCC2)ccc1C(C)C.Cl (centres undefined) | 39.1 |
| CC(C)C(OC(=O)/C=C/c1ccc2c(c1)OCO2)C(=O)NC(N)=O (centres undefined) | 6.6 (≈ 19.7 µM) |
| COc1cccc(/C=C/C(=O)Nc2ccccc2N2CCOCC2)c1 | 28.1 (≈ 83 µM) |
| N#Cc1cccnc1N1CCN(C(=O)c2ccccc2)CC1 | 43.4 (≈ 148 µM) |
| CN(C)c1ncnc2sc(-c3ccccc3)cc12 | 3 (≈ 11.7 µM) |
| CCC(C)[C@H](NC(=O)N1CCCCCC1)C(=O)OC (some centres undefined) | 1.2 (≈ 4.44 µM) |
| Cc1cccc(NC(=O)COC(=O)c2ccc([N+](=O)[O-])o2)c1C | 17.2 (≈ 54 µM) |
| CCc1nc2ccc(Cc3ccc4nc(CC)[nH]c4c3)cc2[nH]1 | > 45.7 |
| CCCN1C2CCCC1CC(NC(=S)Nc1cccc(C)c1)C2 (centres undefined) | > 49.7 |
| O=C(CN1C(=O)c2ccccc2C1=O)OCC(=O)N1CCCCC1 | > 49.6 |
| O=C1C(Cl)=C(N2CCCCCC2)C(=O)N1c1ccc(Cl)cc1 | 26.2 (≈ 77.2 µM) |
| COc1ccc2nc(NC(=O)c3ccccc3O)sc2c1 | 0.7 (≈ 2.33 µM) |
| CCN1C(=O)CCCc2ccccc21 | > 28.4 |
| COc1ccc(C2=NOC(C(=O)Nc3cc(C)on3)C2)cc1OC (centres undefined) | > 49.7 |
| CCCn1c(=O)c2[nH]cnc2n(-c2ccc(Cl)cc2)c1=O | 44.9 (≈ 147 µM) |
| Cc1cc(C(=O)COC(=O)c2ccc(NC(=O)CC#N)cc2)c(C)n1-c1ccc(OC(F)F)cc1 | 1.7 (≈ 3.53 µM) |
| CC1CCCC(NC(=O)COC(=O)c2ccc([N+](=O)[O-])s2)C1C (centres undefined) | 15.4 (≈ 45.2 µM) |
| CCc1nnc(NC(=O)CN2CCN(S(C)(=O)=O)CC2)s1 | > 50 |
| S=C(NCC1COc2ccccc2O1)Nc1ccccc1 (centres undefined) | 6.5 (≈ 21.6 µM) |
| CC(=O)C1=C(O)C(=O)N(c2ccc(O)cc2)C1c1ccc([N+](=O)[O-])cc1 (centres undefined) | > 53.1 |
| Cc1cc(C(=O)N2CCC(C)CC2)on1 | > 31.2 |
